Reference: US11092596B2, “Material and method to screen proteasome stimulators” (Purdue Research Foundation, priority 2017, dated 2021)
“Also recorded” adds a separate entry of the source.

Legend:
Type in all cases: biochemical
[1] = target: T1, chymotrypsin-like activity of the 20S CP (Homo sapiens, UniProt P28074); assay: Kinetic assay, Suc-LLVY-AMC reporter hydrolysis by purified 20S CP; conditions: 25 μM compound, triplicate; hit = at least 50% increase
T1 construct: 5 μL purified 20S proteasome (90 nM in Tris-HCl) was added to the control and test wells
Experimental: Plate preparation for the kinetic assay was performed similarly for all assays. All 96-well plates contained the following in triplicate: reporter background, containing reporter only, and control wells, containing reporter and purified 20S CP. It was determined that each well will contain a total volume of 50 μL. To each well was added 40 μL of the coumarin or FRET reporters (in Tris-HCl, 50 mM, pH 7.7). To the reporter background wells was added 7.5 μL Tris-HCl and 2.5 μL of the solvent in which the compound of interest was dissolved or diluted. Similarly, to the control wells was added 2.5 μL Tris-HCl and 2.5 μL of the solvent in which the compound of interest was dissolved or diluted. To the test wells was added 2.5 μL Tris-HCl and 2.5 μL of the compound of interest at a predetermined concentration. Immediately prior to running the assay on the Synergy 4 Plate Reader, 5 μL purified 20S proteasome (90 nM in Tris-HCl) was added to the control and test wells.
The Synergy 4 Plate Reader was set to heat the plate at 37° C. and read fluorescence every 2 min over a 40 min period. The excitation and emission wavelengths were set according to the reporter. For the FRET reporter, the excitation and emission wavelengths were set to 335 nm and 493 nm, respectively, corresponding to the excitation and emission wavelengths of the Edans fluorophore. […]
Sodium dodecyl sulfate (SDS) was used to test the effect stimulating the 20S proteasome has on the hydrolysis of the FRET reporters. The appropriate concentration of SDS to use in the kinetic assay was determined using the small chymotrypsin-like activity reporter, Suc-LLVY-AMC (SEQ ID NO: 4). […] In triplicate, the following final concentrations of SDS were analyzed for the effect each has on the activity of the 20S proteasome: 4000 μM, 2000 μM, 1000 μM, 500 μM, 250 μM, 125 μM, and 0 μM, the basal activity of the 20S proteasome. […] Immediately prior to reading the plate with the Synergy 4 plate reader, 5 μL purified 20S proteasome (90 nM in Tris-HCl) was added to the wells at a final concentration of 9 nM per well.
The Synergy 4 Plate Reader was set to heat the plate at 37° C. and read fluorescence every 2 min over a 1 hr period. […] The resulting data in relative fluorescence units (RFU) was analyzed using GraphPad Prism and was plotted against time in minutes. […] Based on the resulting curve and the hyperbolic curve obtained using 1000 μM SDS (FIG. 11b), it was determined that 500 μM SDS was the appropriate concentration to use to test the effect stimulating the 20S proteasome has on the hydrolysis of the FRET reporters.
Stimulation of the 20S proteasome with SDS was determined using both the coumarin and FRET reporters for the chymotrypsin-like and trypsin-like activities of the 20S CP. […]

[2] = target: T2, chymotrypsin-like activity of the 26S proteasome (Homo sapiens, UniProt P28074); assay: Kinetic assay, CT-L FRET reporter with 26S proteasome; conditions: 25 μM compound
T2 construct: 5 μL purified 26S proteasome (62.5 μg/mL in Tris-HCl) was added to the control and test wells
Experimental: Compounds 1, 2, and 3 were screened with the 26S proteasome in triplicate using the CT-L FRET reporter.
(§1) To each well was added 40 μL 20 μM CT-L FRET reporter (in Tris-HCl, 50 mM, pH 7.7). To the reporter background wells was added 5 μL Tris-HCl and 5 μL 1:1 Tris-HCl:DMSO. Similarly, to the control wells was added 5 μL 1:1 Tris-HCl:DMSO. To the test wells was added 2.5 μL Tris-HCl and 2.5 μL of a 500 μM solution of the compound of interest in DMSO. […] Immediately prior to running the assay on the Synergy 4 Plate Reader, 5 μL purified 26S proteasome (62.5 μg/mL in Tris-HCl) was added to the control and test wells.
(§2) The assay was performed using the Synergy 4 plate reader as described for the general screening kinetic assay procedure.

[3] = target: chymotrypsin-like activity of the immunoproteasome core particle (iCP) (Homo sapiens, UniProt P28062); assay: Kinetic assay, CT-L FRET reporter with immunoproteasome; conditions: 25 μM compound
Experimental: Compounds 1, 2, and 3 were screened with the immunoproteasome in triplicate using the CT-L FRET reporter.
as §1, §2

SMILES: Cc1c(C)c2c(c(C)c1OC(=O)CCC(=O)O)CC[C@@](C)(CCC[C@H](C)CCC[C@H](C)CCCC(C)C)O2 [Compound 3, vitamin E succinate]
- primary hit status with the 4-amino acid reporter Suc-LLVY-AMC [1]: would not have been considered primary hits
- ability to stimulate the 26S proteasome's CT-L activity [2]: Neither molecules 2 or 3 affected the rate
- ability to stimulate the chymotrypsin-like activity of the iCP [3]: showed an effect; also recorded: stimulate the chymotrypsin-like activity of the iCP significantly

SMILES: C[C@H]1[C@H](C)CC[C@]2(C(=O)O)CC[C@]3(C)C(=CC[C@@H]4[C@@]5(C)CC[C@H](O)C(C)(C)[C@@H]5CC[C@]43C)[C@H]12 [Compound 2, ursolic acid]
- primary hit status with the 4-amino acid reporter Suc-LLVY-AMC [1]: would not have been considered primary hits
- ability to stimulate the 26S proteasome's CT-L activity [2]: Neither molecules 2 or 3 affected the rate
- ability to stimulate the chymotrypsin-like activity of the iCP [3]: showed an effect; also recorded: stimulate the chymotrypsin-like activity of the iCP significantly
